According to ChEMBL document CHEMBL5724914, “Linking interpersonal differences in gut microbiota composition and drug biotransformation activity” (2024):

test: (§1) The drug is tested on WLS-220 corresponding to human gut metagenome with ENA study accession number: PRJEB37062 and ENA sample accession number: ERS12561769 for biotransformation under anaerobic condition. The drug concentrations were measured over 9 timepoints collected between 0 and 24 hours of incubation by liquid-chromatography-coupled mass spectrometry (LC–MS); details: 2 µM
Note: call rule not given here.

| Structure (SMILES) | Bacterial Biotransformation |
| --- | --- |
| Cc1nc2n(c(=O)c1CCN1CCC(c3noc4cc(F)ccc34)CC1)CCCC2 [RISPERIDONE] | Compound metabolized |
| C[C@@H]1CC[C@H]2[C@@H](C)C(=O)O[C@@H]3O[C@@]4(C)CC[C@@H]1[C@]32OO4 [ARTEMISININ] | Compound metabolized |
| COc1ccccc1N1CCN(CC(O)COc2cccc3ccccc23)CC1 (configuration not stated) [NAFTOPIDIL] | Compound NOT metabolized |

test: as §1, with “WLS-052” for “WLS-220”, “ERS12561747” for “ERS12561769”; details: 2 µM

| Structure (SMILES) | Bacterial Biotransformation |
| --- | --- |
| Cc1nc2n(c(=O)c1CCN1CCC(c3noc4cc(F)ccc34)CC1)CCCC2 [RISPERIDONE] | Compound metabolized |
| C[C@@H]1CC[C@H]2[C@@H](C)C(=O)O[C@@H]3O[C@@]4(C)CC[C@@H]1[C@]32OO4 [ARTEMISININ] | Compound metabolized |
| COc1ccccc1N1CCN(CC(O)COc2cccc3ccccc23)CC1 (configuration not stated) [NAFTOPIDIL] | Compound NOT metabolized |

details: human gut metagenome, 24 h, 2 µM

| Structure (SMILES) | Bacterial Biotransformation |
| --- | --- |
| Cc1nc2n(c(=O)c1CCN1CCC(c3noc4cc(F)ccc34)CC1)CCCC2 [RISPERIDONE] | Compound metabolized |
| COc1ccccc1N1CCN(CC(O)COc2cccc3ccccc23)CC1 (configuration not stated) [NAFTOPIDIL] | Compound NOT metabolized |

details: human gut metagenome, 24 h, 2 µM; remark: another data set of the same source

| Structure (SMILES) | Bacterial Biotransformation |
| --- | --- |
| Cc1nc2n(c(=O)c1CCN1CCC(c3noc4cc(F)ccc34)CC1)CCCC2 [RISPERIDONE] | Compound metabolized |
| C[C@@H]1CC[C@H]2[C@@H](C)C(=O)O[C@@H]3O[C@@]4(C)CC[C@@H]1[C@]32OO4 [ARTEMISININ] | Compound metabolized |
| COc1ccccc1N1CCN(CC(O)COc2cccc3ccccc23)CC1 (configuration not stated) [NAFTOPIDIL] | Compound NOT metabolized |

details: human gut metagenome, 24 h, 2 µM; remark: another data set of the same source

| Structure (SMILES) | Bacterial Biotransformation |
| --- | --- |
| Cc1nc2n(c(=O)c1CCN1CCC(c3noc4cc(F)ccc34)CC1)CCCC2 [RISPERIDONE] | Compound metabolized |
| C[C@@H]1CC[C@H]2[C@@H](C)C(=O)O[C@@H]3O[C@@]4(C)CC[C@@H]1[C@]32OO4 [ARTEMISININ] | Compound metabolized |
| COc1ccccc1N1CCN(CC(O)COc2cccc3ccccc23)CC1 (configuration not stated) [NAFTOPIDIL] | Compound NOT metabolized |

details: human gut metagenome, 24 h, 2 µM; remark: another data set of the same source

| Structure (SMILES) | Bacterial Biotransformation |
| --- | --- |
| Cc1nc2n(c(=O)c1CCN1CCC(c3noc4cc(F)ccc34)CC1)CCCC2 [RISPERIDONE] | Compound metabolized |
| C[C@@H]1CC[C@H]2[C@@H](C)C(=O)O[C@@H]3O[C@@]4(C)CC[C@@H]1[C@]32OO4 [ARTEMISININ] | Compound NOT metabolized |
| COc1ccccc1N1CCN(CC(O)COc2cccc3ccccc23)CC1 (configuration not stated) [NAFTOPIDIL] | Compound NOT metabolized |

details: human gut metagenome, 24 h, 2 µM; remark: another data set of the same source

| Structure (SMILES) | Bacterial Biotransformation |
| --- | --- |
| Cc1nc2n(c(=O)c1CCN1CCC(c3noc4cc(F)ccc34)CC1)CCCC2 [RISPERIDONE] | Compound metabolized |
| C[C@@H]1CC[C@H]2[C@@H](C)C(=O)O[C@@H]3O[C@@]4(C)CC[C@@H]1[C@]32OO4 [ARTEMISININ] | Compound metabolized |
| COc1ccccc1N1CCN(CC(O)COc2cccc3ccccc23)CC1 (configuration not stated) [NAFTOPIDIL] | Compound NOT metabolized |

test: as §1, with “Z-006” for “WLS-220”, “mouse” for “human”, “ERS12561806” for “ERS12561769”; details: 2 µM

| Structure (SMILES) | Bacterial Biotransformation |
| --- | --- |
| Cc1nc2n(c(=O)c1CCN1CCC(c3noc4cc(F)ccc34)CC1)CCCC2 [RISPERIDONE] | Compound metabolized |
| C[C@@H]1CC[C@H]2[C@@H](C)C(=O)O[C@@H]3O[C@@]4(C)CC[C@@H]1[C@]32OO4 [ARTEMISININ] | Compound NOT metabolized |
| COc1ccccc1N1CCN(CC(O)COc2cccc3ccccc23)CC1 (configuration not stated) [NAFTOPIDIL] | Compound NOT metabolized |

details: human gut metagenome, 24 h, 2 µM; remark: another data set of the same source

| Structure (SMILES) | Bacterial Biotransformation |
| --- | --- |
| Cc1nc2n(c(=O)c1CCN1CCC(c3noc4cc(F)ccc34)CC1)CCCC2 [RISPERIDONE] | Compound metabolized |
| COc1ccccc1N1CCN(CC(O)COc2cccc3ccccc23)CC1 (configuration not stated) [NAFTOPIDIL] | Compound NOT metabolized |

details: human gut metagenome, 24 h, 2 µM; remark: another data set of the same source

| Structure (SMILES) | Bacterial Biotransformation |
| --- | --- |
| Cc1nc2n(c(=O)c1CCN1CCC(c3noc4cc(F)ccc34)CC1)CCCC2 [RISPERIDONE] | Compound metabolized |
| C[C@@H]1CC[C@H]2[C@@H](C)C(=O)O[C@@H]3O[C@@]4(C)CC[C@@H]1[C@]32OO4 [ARTEMISININ] | Compound metabolized |
| COc1ccccc1N1CCN(CC(O)COc2cccc3ccccc23)CC1 (configuration not stated) [NAFTOPIDIL] | Compound NOT metabolized |

test: as §1, with “WLS-350” for “WLS-220”, “ERS12561789” for “ERS12561769”; details: 2 µM

| Bacterial Biotransformation | Structure (SMILES) |
| --- | --- |
| Compound NOT metabolized | COc1ccccc1N1CCN(CC(O)COc2cccc3ccccc23)CC1 (configuration not stated) [NAFTOPIDIL] |

test: as §1, with “Z-005” for “WLS-220”, “to” for “to human gut”, “ERS12561805” for “ERS12561769”; details: 2 µM

| Structure (SMILES) | Bacterial Biotransformation |
| --- | --- |
| Cc1nc2n(c(=O)c1CCN1CCC(c3noc4cc(F)ccc34)CC1)CCCC2 [RISPERIDONE] | Compound metabolized |
| COc1ccccc1N1CCN(CC(O)COc2cccc3ccccc23)CC1 (configuration not stated) [NAFTOPIDIL] | Compound NOT metabolized |

details: human gut metagenome, 24 h, 2 µM; remark: another data set of the same source

| Structure (SMILES) | Bacterial Biotransformation |
| --- | --- |
| Cc1nc2n(c(=O)c1CCN1CCC(c3noc4cc(F)ccc34)CC1)CCCC2 [RISPERIDONE] | Compound metabolized |
| C[C@@H]1CC[C@H]2[C@@H](C)C(=O)O[C@@H]3O[C@@]4(C)CC[C@@H]1[C@]32OO4 [ARTEMISININ] | Compound metabolized |
| COc1ccccc1N1CCN(CC(O)COc2cccc3ccccc23)CC1 (configuration not stated) [NAFTOPIDIL] | Compound NOT metabolized |

details: human gut metagenome, 24 h, 2 µM; remark: another data set of the same source

| Structure (SMILES) | Bacterial Biotransformation |
| --- | --- |
| Cc1nc2n(c(=O)c1CCN1CCC(c3noc4cc(F)ccc34)CC1)CCCC2 [RISPERIDONE] | Compound metabolized |
| C[C@@H]1CC[C@H]2[C@@H](C)C(=O)O[C@@H]3O[C@@]4(C)CC[C@@H]1[C@]32OO4 [ARTEMISININ] | Compound metabolized |
| COc1ccccc1N1CCN(CC(O)COc2cccc3ccccc23)CC1 (configuration not stated) [NAFTOPIDIL] | Compound NOT metabolized |

test: as §1, with “Z-022” for “WLS-220”, “mouse” for “human”, “ERS12561821” for “ERS12561769”; details: 2 µM

| Structure (SMILES) | Bacterial Biotransformation |
| --- | --- |
| Cc1nc2n(c(=O)c1CCN1CCC(c3noc4cc(F)ccc34)CC1)CCCC2 [RISPERIDONE] | Compound metabolized |
| C[C@@H]1CC[C@H]2[C@@H](C)C(=O)O[C@@H]3O[C@@]4(C)CC[C@@H]1[C@]32OO4 [ARTEMISININ] | Compound metabolized |
| COc1ccccc1N1CCN(CC(O)COc2cccc3ccccc23)CC1 (configuration not stated) [NAFTOPIDIL] | Compound metabolized |

test: as §1, with “WLS-069” for “WLS-220”, “ERS12561748” for “ERS12561769”; details: 2 µM

| Structure (SMILES) | Bacterial Biotransformation |
| --- | --- |
| Cc1nc2n(c(=O)c1CCN1CCC(c3noc4cc(F)ccc34)CC1)CCCC2 [RISPERIDONE] | Compound metabolized |
| C[C@@H]1CC[C@H]2[C@@H](C)C(=O)O[C@@H]3O[C@@]4(C)CC[C@@H]1[C@]32OO4 [ARTEMISININ] | Compound metabolized |
| COc1ccccc1N1CCN(CC(O)COc2cccc3ccccc23)CC1 (configuration not stated) [NAFTOPIDIL] | Compound NOT metabolized |

test: as §1, with “Z-004” for “WLS-220”, “to” for “to human gut”, “ERS12561804” for “ERS12561769”; details: 2 µM

| Structure (SMILES) | Bacterial Biotransformation |
| --- | --- |
| Cc1nc2n(c(=O)c1CCN1CCC(c3noc4cc(F)ccc34)CC1)CCCC2 [RISPERIDONE] | Compound metabolized |
| COc1ccccc1N1CCN(CC(O)COc2cccc3ccccc23)CC1 (configuration not stated) [NAFTOPIDIL] | Compound NOT metabolized |

test: as §1, with “Z-017” for “WLS-220”, “mouse” for “human”, “ERS12561816” for “ERS12561769”; details: 2 µM

| Structure (SMILES) | Bacterial Biotransformation |
| --- | --- |
| Cc1nc2n(c(=O)c1CCN1CCC(c3noc4cc(F)ccc34)CC1)CCCC2 [RISPERIDONE] | Compound metabolized |
| COc1ccccc1N1CCN(CC(O)COc2cccc3ccccc23)CC1 (configuration not stated) [NAFTOPIDIL] | Compound NOT metabolized |

details: human gut metagenome, 24 h, 2 µM; remark: another data set of the same source

| Structure (SMILES) | Bacterial Biotransformation |
| --- | --- |
| Cc1nc2n(c(=O)c1CCN1CCC(c3noc4cc(F)ccc34)CC1)CCCC2 [RISPERIDONE] | Compound metabolized |
| C[C@@H]1CC[C@H]2[C@@H](C)C(=O)O[C@@H]3O[C@@]4(C)CC[C@@H]1[C@]32OO4 [ARTEMISININ] | Compound metabolized |
| COc1ccccc1N1CCN(CC(O)COc2cccc3ccccc23)CC1 (configuration not stated) [NAFTOPIDIL] | Compound NOT metabolized |

test: as §1, with “Z-029” for “WLS-220”, “rat” for “human”, “ERS12561828” for “ERS12561769”; details: 2 µM

| Structure (SMILES) | Bacterial Biotransformation |
| --- | --- |
| Cc1nc2n(c(=O)c1CCN1CCC(c3noc4cc(F)ccc34)CC1)CCCC2 [RISPERIDONE] | Compound NOT metabolized |
| C[C@@H]1CC[C@H]2[C@@H](C)C(=O)O[C@@H]3O[C@@]4(C)CC[C@@H]1[C@]32OO4 [ARTEMISININ] | Compound metabolized |
